This series in a line: Dissolution studies of Lasofoxifene in organic solvents and surfactants. It is filed as physicochemical. The settings on record: Lasofoxifene 2 mg/ml in the labelled solvent/surfactant; visual examination. The method, then:
The solubility of Lasofoxifene was investigated by screening various organic solvents and surfactants in increasing concentrations. The term “formulation” may refer to a pharmaceutical composition comprising […] pharmaceutically acceptable excipients.
First, 1 mg of Lasofoxifene was weighed into Eppendorf vessels and 500 μl of organic solvents and surfactants as listed in Table 20 were added. In cases of insufficient dissolution of the API, samples were treated with ultrasound for 30 min and, if necessary, heated to 50° C. while shaking (300 rpm). Afterwards, samples were examined visually regarding drug dissolution. In case of entire dissolution, the experiment was repeated with increasing drug concentrations until maximum dissolution was achieved. In addition, further organic solvents and surfactants were tested.

Consider `CC(=O)OCC(COC(C)=O)OC(C)=O` [Triacetin (TAC), Triacetin], for which the “Dissolution of Lasofoxifene in various organic solvents and surfactants, 2 mg/ml” value is given as “not dissolved”.

These data come from patent publication US10857127B2, “Vaginal delivery systems containing selective estrogen receptor modulator (SERM) and uses thereof” (Azure Biotech, Inc., priority 2016, dated 2020).
